{"source": "patent US20120214818A1", "about": "“METHODS OF TREATING DIASTOLIC DYSFUNCTION AND RELATED CONDITIONS” (THE BOARD OF TRUSTEES OF THE UNIVERSITY OF ILLINOIS, priority 2009, published 2012)", "key": {"[1]": {"test_system": "myofilaments of skinned left ventricular papillary fiber bundles", "assay": "Ca2+-sensitivity of tension in skinned fiber bundles (first series, pCa-tension)", "type": "biochemical, mouse", "details": "for myofilament Ca2+ sensitivity: DOCA-salt fibers/myocytes treated with ranolazine", "protocol": "Ca^2+-sensitivity of tension in skinned fibers: Myofilament response to Ca^2+ was measured as essentially described in Reference 24. Left ventricular papillary muscles were dissected from mouse hearts and placed in 4° C. high relaxing solution (HR), which contained 10.00 mM EGTA, 41.89 mM K-Prop, 6.57 mM MgCl2, 100.00 mM 2-[bis(2-hydroxyethyl)amino]ethanesulfonic acid (BES), 6.22 mM Na-ATP, 10.00 mM CrP, 5.00 mM Na-azide, 2.5 μg/mL Pepstatin, 1 μg/mL Leupeptin, and 50 μM PMSF, pH 7.0. The muscles were then dissected further under the microscope into uniform thin bundles of about 3-5 mm in length and 150-250 μm in diameter. The fiber bundles were placed then into a skinning solution of HR that contained 1% triton for 1-2 h at 4° C. The skinned fiber bundles were mounted with cellulose acetate glue in a force measuring apparatus and sarcomere length was adjusted to 2.2 μm using a laser diffraction pattern and width and thickness were determined for calculation of cross-sectional area. The fiber bundles were incubated in ranolazine or vehicle for 15 minutes, and then were activated at 22° C. over a series of pCa (−log of the M Ca^2+ concentration) values between pCa 8.00 and pCa 4.5. Activating solutions were prepared by mixing HR with a pCa 4.50 solution of 10.00 mM EGTA, 9.99 mM CaCl2, 22.16 mM K-Prop (K-Prop stock had 1.00 M propionic acid and 1.00 M KOH), 6.20 mM MgCl2, 100.00 mM BES, 6.29 mM Na-ATP, 10.00 mM creatine phosphate (CrP), 5.00 mM Na-azide, 2.5 μg/mL pepstatin, 1 μg/mL leupeptin, and 50 μM PMSF, pH 7.0. HR and pCa 8.00-pCa 4.50 solutions had one unit of creatine phosphokinase per 200 μL of solution. Tension generated was computed from the force/cross-sectional area and data were analyzed in the Graphpad Prism software and fit into a sigmoidal modified Hill equation in order to generate tension-pCa curves, Hill coefficients, and pCa50 (pCa value at half-maximum tension).\nWe measured myofilament response to Ca^2+ under two experimental conditions as described in detail below. In a first series of experiments the skinned fiber bundles were mounted in a force measuring apparatus and sarcomere length (SL) was adjusted to 2.2 μm using a laser diffraction pattern and width and thickness were determined for calculation of cross-sectional area. Force was measured over a range of pCa values Skinned fiber bundles were treated with 10 μmol/L ranolazine for 15 min prior to evaluation. In a second series of experiments under different experimental conditions, we determined steady-state Mg-ATPase activity, while simultaneously measuring isometric tension in skinned fiber bundles as a function of pCa. In all experiments, skinned fibers were treated with ranolazine or DMSO vehicle for 15 min prior to beginning either tension or tension/ATPase rate measurements. Tension generated was computed from the force/cross-sectional area and data were analyzed in the GraphPad Prism software and fit with a sigmoidal modified Hill equation in order to generate tension-pCa curves, Hill coefficients, and pCa50 (pCa value at half-maximum tension). We also determined cross-bridge kinetics employing a quick release/restretch protocol. The rate constant for force redevelopment, Ktr, provides a measure of the rate of cross-bridge entry into the force generating state. In all experiments, only fiber bundles retaining more than 80% of their initial maximum tension were included in the analysis. […]"}, "DOCA-salt and sham mice": {"test_system": "DOCA-salt and sham mice", "assay": "Noninvasive echocardiographic assessment of diastolic dysfunction, acute ranolazine", "type": "in vivo, mouse", "details": "30 mg/kg ranolazine intraperitoneal; for E/A, early to late diastolic filling velocity / E/E′ / E′, early septal mitral annulus velocity (TDI) / E′/A′ / Sm, systolic septal mitral annulus velocity (TDI): 30 min; for EF, ejection fraction (Table 3) / FS, fractional shortening: echocardiogram 30 min later", "protocol": "Generation of DOCA-salt mouse model: Previously, it was shown that this model leads to mild hypertension, myocardial oxidative stress, and diastolic dysfunction.^20 A gradual and mild elevation in blood pressure was induced by unilateral nephrectomy, subcutaneous implantation of a controlled release deoxycorticosterone acetate (DOCA) pellet (0.7 mg/d; Innovative Research of America, Sarasota, Fla.), and substituting drinking water with 1.05% saline. Control animals underwent a sham operation, had placebo pellet implantation, and received water without salt. Noninvasive assessment of diastolic dysfunction: Mice were anesthetized, maintained at 37° C., and studied by echocardiography (Vevo 770, VisualSonics Inc, Toronto, Canada). M-mode images in the parasternal long axis and the left ventricle (LV) short-axis views at the mid-papillary level. Measurements were averaged from three consecutive beats during expiration. LV inflow velocities (E and A waves) were interrogated by conventional pulsed-wave Doppler from the apical four-chamber view. The mitral annulus longitudinal velocities (Sm, E′, and A′) were determined by pulsed-wave tissue Doppler from the apical four-chamber view. Interpretation was done by two investigators blinded to the treatment groups. First, baseline images were acquired. Subsequently, the mice were injected with 30 mg/kg ranolazine by intraperitoneal route, followed by a second echocardiogram 30 min later. Previously, we have shown that this model leads to mild hypertension, myocardial oxidative stress, and diastolic dysfunction.^20 A gradual and mild elevation in blood pressure was induced by unilateral nephrectomy, subcutaneous implantation of a controlled release deoxycorticosterone acetate (DOCA) pellet (0.7 mg/d; Innovative Research of America, Sarasota, Fla.), and substituting drinking water with 1.05% saline. Control animals underwent a sham operation, had placebo pellet implantation, and received water without salt. Mice were anesthetized, maintained at 37° C., and studied by echocardiography (Vevo 770, VisualSonics Inc, Toronto, Canada). M-mode images in the parasternal long axis and the left ventricle (LV) short-axis views at the mid-papillary level were taken. Measurements were averaged from three consecutive beats during expiration. LV inflow velocities (E and A waves) were interrogated by conventional pulsed-wave Doppler from the apical four-chamber view. The mitral annulus longitudinal velocities (Sm, E′, and A′) were determined by pulsed-wave tissue Doppler from the apical four-chamber view. Interpretation was done by a two investigators blinded to the treatment groups. First, baseline images were acquired. Subsequently to determine the acute effect, the mice were injected with 30 mg/kg ranolazine by intraperitoneal route, followed by a second echocardiogram 30 min later."}}, "note": "Where “and” joins values, the source holds several entries; their conditions need not be identical. Equal entries are not always repeated."}
{"smiles": "COc1ccccc1OCC(O)CN1CCN(CC(=O)Nc2c(C)cccc2C)CC1", "note": "(stereo not shown) [ranolazine]", "values": [{"measurement": "Maximum Tension", "setting": "[1]; DOCA-salt fibers treated with ranolazine (FIG. 11)", "result": "36.03±1.50", "unit": "mN/mm^2"}, {"measurement": "myofilament Ca2+ sensitivity", "setting": "[1]", "result": "returned the DOCA-salt myofilament sensitivity to levels similar to sham fibers"}, {"measurement": "myofilament Ca2+ sensitivity", "setting": "[1]; listed as Ranolazine", "result": "returned DOCA-salt myofilament sensitivity to levels similar to sham myocytes"}, {"measurement": "Hill n", "setting": "[1]; fibers from DOCA mice treated with 10 μmol/L ranolazine 15 min, listed as ranalozine", "result": "3.71+/−1.0 and 3.71±1.0"}, {"measurement": "pCa50 (pCa-tension relations normalized to maximum tension)", "setting": "[1]; fibers from DOCA mice treated with 10 μmol/L ranolazine 15 min, sarcomere length 2.2 μm, 22° C., listed as ranalozine", "result": "6.0+/−0.03 and 6.0±0.03"}, {"measurement": "E/A, early to late diastolic filling velocity", "setting": "DOCA-salt and sham mice; DOCA-salt mice", "result": "1.62 ± 0.11"}, {"measurement": "E/E′", "setting": "DOCA-salt and sham mice; DOCA-salt mice", "result": "31.9 ± 2.6"}, {"measurement": "E′, early septal mitral annulus velocity (TDI)", "setting": "DOCA-salt and sham mice; DOCA-salt mice", "result": "2.47 ± 0.18", "unit": "cm/s"}, {"measurement": "E′/A′", "setting": "DOCA-salt and sham mice; DOCA-salt mice", "result": "1.31 ± 0.11"}, {"measurement": "Sm, systolic septal mitral annulus velocity (TDI)", "setting": "DOCA-salt and sham mice; DOCA-salt mice", "result": "2.15 ± 0.14", "unit": "cm/s"}, {"measurement": "EF, ejection fraction (Table 3)", "setting": "DOCA-salt and sham mice; DOCA-salt mice", "result": "46.9 ± 1.6", "unit": "%"}, {"measurement": "FS, fractional shortening", "setting": "DOCA-salt and sham mice; DOCA-salt mice", "result": "46.9 ± 1.6", "unit": "%"}, {"measurement": "E/A, early to late diastolic filling velocity", "setting": "DOCA-salt and sham mice; sham mice", "result": "1.63 ± 0.07"}, {"measurement": "E/E′", "setting": "DOCA-salt and sham mice; sham mice", "result": "30.2 ± 1.9"}, {"measurement": "E′, early septal mitral annulus velocity (TDI)", "setting": "DOCA-salt and sham mice; sham mice", "result": "2.67 ± 0.11", "unit": "cm/s"}, {"measurement": "E′/A′", "setting": "DOCA-salt and sham mice; sham mice", "result": "1.16 ± 0.02"}, {"measurement": "Sm, systolic septal mitral annulus velocity (TDI)", "setting": "DOCA-salt and sham mice; sham mice", "result": "2.31 ± 0.09", "unit": "cm/s"}, {"measurement": "EF, ejection fraction (Table 3)", "setting": "DOCA-salt and sham mice; sham mice", "result": "52.8 ± 0.8", "unit": "%"}, {"measurement": "FS, fractional shortening", "setting": "DOCA-salt and sham mice; sham mice", "result": "52.8 ± 0.8", "unit": "%"}]}
